Where “and” joins values, the source holds several entries; their conditions need not be identical. Equal values may be shown once.
Tested on: 126254-015-R-J1-PDC complex spheroid growth, % test/control
Assay: Anticancer human tumor 126254-015-R-J1-PDC patient-derived soft tissue sarcoma cell line growth inhibition [Asc]
Settings: for viability, T/C: stronger effect = lower value
Procedure, shortened: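 Complex spheroids combining tumor cells with HUVEC endothelial cells and human MSCs, at 37 degrees C, 5% CO2; agents tested alone or combined, half-log dilutions from at or near clinical Cmax, or 10 microM if Cmax unknown.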

[1] = curve of first compound, second compound 0.1 µM
[2] = curve of first compound, second compound 0.316 µM
[3] = curve of first compound, second compound 1 µM
[4] = curve of first compound, second compound 3.16 µM
[5] = curve of first compound, second compound 10 µM
[6] = second compound 0.1 µM, first compound 0.00949 µM
[7] = second compound 0.1 µM, first compound 0.03 µM
[8] = second compound 0.1 µM, first compound 0.0949 µM
[9] = second compound 0.1 µM, first compound 0.3 µM
[10] = second compound 0.1 µM, first compound 0.949 µM
[11] = second compound 0.1 µM, first compound 3 µM
[12] = second compound 0.316 µM, first compound 0.00949 µM
[13] = second compound 0.316 µM, first compound 0.03 µM
[14] = second compound 0.316 µM, first compound 0.0949 µM
[15] = second compound 0.316 µM, first compound 0.3 µM
[16] = second compound 0.316 µM, first compound 0.949 µM
[17] = second compound 0.316 µM, first compound 3 µM
[18] = second compound 1 µM, first compound 0.00949 µM
[19] = second compound 1 µM, first compound 0.03 µM
[20] = second compound 1 µM, first compound 0.0949 µM
[21] = second compound 1 µM, first compound 0.3 µM
[22] = second compound 1 µM, first compound 0.949 µM
[23] = second compound 1 µM, first compound 3 µM
[24] = second compound 3.16 µM, first compound 0.00949 µM
[25] = second compound 3.16 µM, first compound 0.03 µM
[26] = second compound 3.16 µM, first compound 0.0949 µM
[27] = second compound 3.16 µM, first compound 0.3 µM
[28] = second compound 3.16 µM, first compound 0.949 µM
[29] = second compound 3.16 µM, first compound 3 µM
[30] = second compound 10 µM, first compound 0.00949 µM
[31] = second compound 10 µM, first compound 0.03 µM
[32] = second compound 10 µM, first compound 0.0949 µM
[33] = second compound 10 µM, first compound 0.3 µM
[34] = second compound 10 µM, first compound 0.949 µM
[35] = second compound 10 µM, first compound 3 µM
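Also: spheroids exposed to compound for seven days.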
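For viability, T/C in this document: 100% = DMSO vehicle control wells.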

What does the source list for `CCN1C(C(=O)NC23CCC(C(=O)O)(CC2)CC3)C(c2cccc(Cl)c2F)C2(C(=O)Nc3cc(Cl)ccc32)C12CCCCC2` (centres undefined) + Cc1c(S(C)(=O)=O)c(-c2cc(F)cc(N3CCN(c4ccc(NS(=O)(=O)c5ccc(NC(CCN6CCC(C(=O)OCCCP(=O)(O)O)CC6)CSc6ccccc6)c(S(=O)(=O)C(F)(F)F)c5)cc4)CC3)c2)c(-c2ccc(Cl)cc2)n1C(C)C?
IC50 [1]: > 3000 nM; IC50 [2]: > 3000 nM; IC50 [3]: > 3000 nM; IC50 [4]: > 3000 nM; IC50 [5]: > 3000 nM; viability, T/C [6]: 90.7%; viability, T/C [7]: 85.1%; viability, T/C [8]: 91.7%; viability, T/C [9]: 88.6%; viability, T/C [10]: 93.9%; viability, T/C [11]: 88.3%; viability, T/C [12]: 83.3%; viability, T/C [13]: 82.4%; viability, T/C [14]: 81.9%; viability, T/C [15]: 79.7%; viability, T/C [16]: 74.9%; viability, T/C [17]: 76.9%; viability, T/C [18]: 86.1%; viability, T/C [19]: 84.4%; viability, T/C [20]: 87.1%; viability, T/C [21]: 79.4%; viability, T/C [22]: 82.7%; viability, T/C [23]: 71.4%; viability, T/C [24]: 76%; viability, T/C [25]: 83.8%; viability, T/C [26]: 77.2%; viability, T/C [27]: 78.7%; viability, T/C [28]: 81.3%; viability, T/C [29]: 70.5%; viability, T/C [30]: 82.3%; viability, T/C [31]: 86.5%; viability, T/C [32]: 88.8%; viability, T/C [33]: 82.5%; viability, T/C [34]: 75.5%; viability, T/C [35]: 72.2%

What does the source list for `NC(=O)C(=Cn1cnc(-c2cc(C(F)(F)F)cc(C(F)(F)F)c2)n1)c1cncnc1`?
viability, T/C (compound 0.000949 µM): 104% and 107% and 110%; viability, T/C (compound 0.003 µM): 92.3% and 94% and 104%; viability, T/C (compound 0.00949 µM): 86.1% and 82.2% and 93.2%; viability, T/C (compound 0.03 µM): 63.4% and 58.5% and 84.6%; viability, T/C (compound 0.0949 µM): 33.2% and 34.4% and 57.5%; viability, T/C (compound 0.3 µM): 13.9% and 15.5% and 19.8%; IC50 (curve of compound): 49.9 nM and 45.6 nM and 121 nM

How did the IC50 [1] turn out when `Cc1nc(N2CCC3(CC2)COC(C)C3N)c(CO)nc1Sc1ccnc(N)c1Cl` (centres undefined) + Cc1c(S(C)(=O)=O)c(-c2cc(F)cc(N3CCN(c4ccc(NS(=O)(=O)c5ccc(NC(CCN6CCC(C(=O)OCCCP(=O)(O)O)CC6)CSc6ccccc6)c(S(=O)(=O)C(F)(F)F)c5)cc4)CC3)c2)c(-c2ccc(Cl)cc2)n1C(C)C was run?
The IC50 was 765 nM.

And the IC50 [2]?
Its IC50 is 451 nM.

What about the IC50 [3] of the same compound?
Its IC50 is 501 nM.

What about the IC50 [4] of the same compound?
The IC50 was 362 nM.

What about the IC50 [5] of the same compound?
Its IC50 is 465 nM.

What about the viability, T/C [6] of the same compound?
The viability, T/C was 88.7%.

And the viability, T/C [7]?
The viability, T/C was 82.2%.

And the viability, T/C [8]?
The viability, T/C was 68.6%.

And the viability, T/C [9]?
The viability, T/C was 56.7%.

And the viability, T/C [10]?
The viability, T/C was 51.9%.

And the viability, T/C [11]?
The viability, T/C was 34.4%.

What about the viability, T/C [12] of the same compound?
The viability, T/C was 83.1%.

And the viability, T/C [13]?
Its viability, T/C is 77.6%.

What about the viability, T/C [14] of the same compound?
The viability, T/C was 67.8%.

And the viability, T/C [15]?
The viability, T/C was 55.3%.

And the viability, T/C [16]?
The viability, T/C was 41%.

And the viability, T/C [17]?
The viability, T/C was 34.2%.

What about the viability, T/C [18] of the same compound?
Its viability, T/C is 80.8%.

What about the viability, T/C [19] of the same compound?
The viability, T/C was 75.7%.

And the viability, T/C [20]?
Its viability, T/C is 72.2%.

What about the viability, T/C [21] of the same compound?
The viability, T/C was 54.4%.

And the viability, T/C [22]?
The viability, T/C was 43.2%.

And the viability, T/C [23]?
The viability, T/C was 30.7%.

And the viability, T/C [24]?
The viability, T/C was 78.6%.

And the viability, T/C [25]?
The viability, T/C was 80.7%.

What about the viability, T/C [26] of the same compound?
The viability, T/C was 70.4%.

And the viability, T/C [27]?
The viability, T/C was 51.7%.

What about the viability, T/C [28] of the same compound?
The viability, T/C was 40.1%.

What about the viability, T/C [29] of the same compound?
Its viability, T/C is 34.6%.

And the viability, T/C [30]?
The viability, T/C was 79.2%.

And the viability, T/C [31]?
The viability, T/C was 84.7%.

And the viability, T/C [32]?
The viability, T/C was 74%.

What about the viability, T/C [33] of the same compound?
Its viability, T/C is 56.1%.

And the viability, T/C [34]?
Its viability, T/C is 40.2%.

What about the viability, T/C [35] of the same compound?
Its viability, T/C is 32%.

`C=C(F)C(=O)N1CCN(c2nc(OCC3CCCN3C)nc3c2CCN(c2cccc4cccc(Cl)c24)C3)CC1CC#N` (centres undefined) was tested. Which viability, T/C (compound 0.0316 µM) did it give?
The viability, T/C was 92% and 107% and 106%.

What about the viability, T/C (compound 0.1 µM) of the same compound?
The viability, T/C was 96.8% and 102% and 95.5%.

And the viability, T/C (compound 0.316 µM)?
Its viability, T/C is 94% and 110% and 105%.

And the viability, T/C (compound 1 µM)?
The viability, T/C was 92.7% and 106% and 93.5%.

What about the viability, T/C (compound 3.16 µM) of the same compound?
Its viability, T/C is 37.7% and 43.4% and 69.6%.

What about the viability, T/C (compound 10 µM) of the same compound?
Its viability, T/C is 0.22% and 0.29% and 0.24%.

What about the IC50 (curve of compound) of the same compound?
Its IC50 is 2450 nM and 2800 nM and 4360 nM.

For `NC1CCC(NC2CC2c2ccccc2)CC1` (centres undefined) + CNC(C)C(=O)NC1CN(S(=O)(=O)c2cccc(S(=O)(=O)N3CCC4CCC(C(=O)NC(c5ccccc5)c5ccccc5)N4C(=O)C(NC(=O)C(C)NC)C3)c2)CCC2CCC(C(=O)NC(c3ccccc3)c3ccccc3)N2C1=O, which IC50 (curve of first compound, second compound 0.01 µM) is on record?
Its IC50 is greater than 100 nM.

What about the IC50 (curve of first compound, second compound 0.0316 µM) of the same compound?
Its IC50 is greater than 100 nM.

And the IC50 [1]?
Its IC50 is greater than 100 nM.

And the IC50 [2]?
Its IC50 is greater than 100 nM.

And the IC50 [3]?
Its IC50 is greater than 100 nM.

And the viability, T/C (second compound 0.01 µM, first compound 0.000316 µM)?
The viability, T/C was 86.3%.

What about the viability, T/C (second compound 0.01 µM, first compound 0.001 µM) of the same compound?
Its viability, T/C is 89.1%.

What about the viability, T/C (second compound 0.01 µM, first compound 0.00316 µM) of the same compound?
Its viability, T/C is 87.1%.

And the viability, T/C (second compound 0.01 µM, first compound 0.01 µM)?
The viability, T/C was 75.5%.

What about the viability, T/C (second compound 0.01 µM, first compound 0.0316 µM) of the same compound?
The viability, T/C was 80.5%.

And the viability, T/C (second compound 0.01 µM, first compound 0.1 µM)?
The viability, T/C was 75%.

What about the viability, T/C (second compound 0.0316 µM, first compound 0.000316 µM) of the same compound?
The viability, T/C was 79.2%.

What about the viability, T/C (second compound 0.0316 µM, first compound 0.001 µM) of the same compound?
Its viability, T/C is 81.6%.

What about the viability, T/C (second compound 0.0316 µM, first compound 0.00316 µM) of the same compound?
Its viability, T/C is 77.5%.

And the viability, T/C (second compound 0.0316 µM, first compound 0.01 µM)?
The viability, T/C was 77.3%.

What about the viability, T/C (second compound 0.0316 µM, first compound 0.0316 µM) of the same compound?
The viability, T/C was 78.1%.

What about the viability, T/C (second compound 0.0316 µM, first compound 0.1 µM) of the same compound?
The viability, T/C was 70.6%.

What about the viability, T/C (second compound 0.1 µM, first compound 0.000316 µM) of the same compound?
The viability, T/C was 70.3%.

What about the viability, T/C (second compound 0.1 µM, first compound 0.001 µM) of the same compound?
Its viability, T/C is 71.3%.

What about the viability, T/C (second compound 0.1 µM, first compound 0.00316 µM) of the same compound?
Its viability, T/C is 72.2%.

And the viability, T/C (second compound 0.1 µM, first compound 0.01 µM)?
The viability, T/C was 69.6%.

What about the viability, T/C (second compound 0.1 µM, first compound 0.0316 µM) of the same compound?
The viability, T/C was 68.8%.

What about the viability, T/C (second compound 0.1 µM, first compound 0.1 µM) of the same compound?
The viability, T/C was 68%.

And the viability, T/C (second compound 0.316 µM, first compound 0.000316 µM)?
Its viability, T/C is 62.2%.

And the viability, T/C (second compound 0.316 µM, first compound 0.001 µM)?
Its viability, T/C is 71.6%.

What about the viability, T/C (second compound 0.316 µM, first compound 0.00316 µM) of the same compound?
Its viability, T/C is 65%.

And the viability, T/C (second compound 0.316 µM, first compound 0.01 µM)?
The viability, T/C was 54.5%.

And the viability, T/C (second compound 0.316 µM, first compound 0.0316 µM)?
The viability, T/C was 61.7%.

What about the viability, T/C (second compound 0.316 µM, first compound 0.1 µM) of the same compound?
Its viability, T/C is 57.8%.

And the viability, T/C (second compound 1 µM, first compound 0.000316 µM)?
The viability, T/C was 49.5%.

And the viability, T/C (second compound 1 µM, first compound 0.001 µM)?
Its viability, T/C is 56.5%.

And the viability, T/C (second compound 1 µM, first compound 0.00316 µM)?
Its viability, T/C is 54.5%.

What about the viability, T/C (second compound 1 µM, first compound 0.01 µM) of the same compound?
The viability, T/C was 50.9%.

And the viability, T/C (second compound 1 µM, first compound 0.0316 µM)?
Its viability, T/C is 53.8%.

And the viability, T/C (second compound 1 µM, first compound 0.1 µM)?
The viability, T/C was 53%.

From PubChem BioAssay AID1963429 (Molecular Pharmacology Branch, DTP, NCI, 2024)
